The text below walks through data of patent US20120208809A1, “9H-PYRROLO[2,3-B: 5,4-C'] DIPYRIDINE AZACARBOLINE DERIVATIVES, PREPARATION THEREOF, AND THERAPEUTIC USE THEREOF” (SANOFI, priority 2009, published 2012).

One may read the IC50 as the midpoint of a concentration-inhibition curve. What is called EC50 is the midpoint of the concentration-response curve.

The target in assay [1] is T1, Pim-1 (Homo sapiens, UniProt P11309).
T1 construct: full-length human recombinant His6-labelled Pim-1, Pim-2 or Pim-3 protein; His6; made in house
Put plainly: TR-FRET assay of Pim kinase activity (phosphorylation of Bad Ser112), Pim-1. In kind it is biochemical. Particulars: ATP 40 μM, read-out: IC50 Pim1. Summed up:
(§1)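 Full-length His6-tagged human Pim-1, -2 or -3 phosphorylate full-length His6-Bad at 40 μM ATP; phospho-Ser112 detected by TR-FRET (Eu anti-phosphoBad, APC anti-His6), 665/615 nm ratio. Compounds run at 10 concentrations in duplicate, typically top 30 μM; IC50 from 4-parameter logistic fit.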
For orientation: In TR-FRET formats the signal depends on donor and acceptor labels being close together.

Assay [2] has as its target T2, Pim-2 (Homo sapiens, UniProt Q9P1W9).
T2 construct: full-length human recombinant His6-labelled Pim-1, Pim-2 or Pim-3 protein; His6; made in house
Put plainly: TR-FRET assay of Pim kinase activity (phosphorylation of Bad Ser112), Pim-2. In kind it is biochemical. Particulars: ATP 40 μM, read-out: IC50 Pim2. The method in brief:
as §1

Assay [3] addresses T3, Pim-3 (Homo sapiens, UniProt Q86V86).
T3 construct: full-length human recombinant His6-labelled Pim-1, Pim-2 or Pim-3 protein; His6; made in house
Put plainly: TR-FRET assay of Pim kinase activity (phosphorylation of Bad Ser112), Pim-3. Format: biochemical. The settings on record: ATP 40 μM, read-out: IC50 Pim3. The method in brief:
as §1

Assay [4] relates to phosphoBAD (JEKO). Put plainly: Level of phosphorylation of Bad by ELISA, JEKO cell line. Format: cell-based. Particulars: Homo sapiens, JEKO cells, 3 hours at 37° C. On the procedure: (§2) The activity of the molecules is evaluated on the JEKO or DND-41 cell line by measuring the level of phosphorylation of Bad and the total Bad content, via the ELISA technique.
(§3) The JEKO or DND-41 cells are resuspended at a concentration of 500 000 cells per ml. The cells are then diluted in RPMI-1640 medium containing 20% foetal calf serum. 225 μl of cells are placed in a plate. Serial dilutions of the molecules are then performed (8 points, three-fold dilution, range started at 10 mM). Each dilution point is then diluted to 1/100 in medium. Next, 25 μl of each of the concentrations are added to the cells and then incubated for 3 hours at 37° C.
(§4) 100 μl of the cells are transferred into a plate treated with poly-D-Lysine. The plate is then incubated for 5-10 minutes at 37° C. and then centrifuged for 5 minutes at 1500 rpm. A volume of 100 μl of 8% fixing solution (solution of formaldehyde in PBS buffer) is added to each of the wells. After covering with a self-adhesive film and a lid, the plate is incubated for 20 minutes at room temperature and then stored at 4° C. overnight.
(§5) Next, the liquid is removed and two successive washes are performed with washing buffer. 100 μl of quenching buffer are added, followed by incubating for 15 minutes at room temperature. After washing, 100 μl of […] at room temperature. After washing, 50 μl of primary antibody diluted to 1/250 for pBAD (Cell Signaling Cat#5284) and to 1/500 for Bad (MBL Cat#591) are added to each of the plates. Each plate is incubated for 2 hours at room temperature. After two washes, 50 μl of secondary antibody (diluted to 1/16) are added to the pBAD plate (tebu-bio ref; FE-021) and 50 μl of the HRP-conjugated IgG secondary antibody (Santa Cruz Cat #SC-2004; diluted to 1/1000) are added to the Bad plate. Incubation for 1 hour at room temperature is performed. Four washes with the washing solution are performed, followed by three washes with PBS. Finally, 100 μl of the developing solution are added, followed by incubation for 10 minutes. Finally, 100 μl of the quenching solution are added, before reading at 450 nm.

The target of assay [5] is CDK1 (Homo sapiens, UniProt P06493). Put plainly: Biochemical results, IC50 CDK1.
Assay [6] concerns the target PLK1 (Homo sapiens, UniProt P53350). Briefly: Biochemical results, IC50 PLK1.
The subject of assay [7] is EOL-1. Briefly: Cell viability assay (CellTiter-Blue), EOL-1.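 Further: EOL-1 is an acute myeloid eosinophilic leukaemia line not a lymphoma.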 In kind it is cell-based. Particulars: Homo sapiens, EOL1, read-out: EC50 EOL-1 μM (eosinophilic leukaemia), EOL-1 cells, read-out: EC50 EOL-1 μM (lymphoma). The method in brief:
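Cells exposed 48, 72 or 96 h (preferably 72 h) to nine 3-fold dilutions, top dose 10 μM or 30 μM. Viability read by resazurin-to-resorufin fluorescence after 4 h CellTiter-Blue; EC50 is concentration giving 50% reduction in viability/proliferative expansion.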

The subject of assay [8] is MV4-11. Put plainly: Cell viability assay (CellTiter-Blue), MV4-11. In kind it is cell-based. The settings on record: Homo sapiens, read-out: EC50 MV4-11 μM (acute myeloid leukemia), MV4-11 cells, read-out: EC50 MV4-11 μM (myeloma). Summed up: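 MOLM-13 or MV4-11 cells incubated 48, 72 or 96 h (preferably 72 h) with nine 3-fold compound dilutions, top dose 10 μM or 30 μM. Viability read by CellTiter-Blue resazurin reduction over 4 h (fluorescence). EC50 is the concentration giving 50% reduction of viability/proliferative expansion.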

Assay [9] relates to MOLM-13. Briefly: Cell viability assay (CellTiter-Blue), MOLM-13. Particulars: Homo sapiens, read-out: EC50 MOLM-13 μM, MOLM-13 cells, read-out: EC50 MOLM-13 μM (myeloma). Format: cell-based. On the procedure: The representative compounds of the invention are also screened as regards their effects on cell proliferation and viability, using a variety of tumoral cell lines of human source, representative of different pathological indications. These cell lines include:
In order to measure the viability, the tumour cells are incubated in 96-well or 384-well format for 48, 72 or 96 hours, preferably 72 hours, with a compound of the invention at dilutions of a factor 3, with, in general, nine doses in total, the highest dose being equal to 10 μM or 30 μM. The cell viability is evaluated by adding CellTiter-Blue® (Promega, Madison, Wis., United States) for 4 hours and endpoint readings are taken using a SpectraMax Genmini EM plate reader (Molecular Devices, Sunnyvale, Calif., United States). The CellTiter-Blue® cell viability assay measures the ability of the cells in culture to reduce resazurin to resorufin, the intensity of the fluorescence signal being directly proportional to the number of live cells. The EC50 represents the concentration of compound that leads to a 50% reduction of the viability/proliferative expansion of the cells.

Assay [10] has as its system phosphoBAD (DND-41). Put plainly: Level of phosphorylation of Bad by ELISA, DND-41 cell line. In kind it is cell-based. Particulars: Homo sapiens, DND41, DND-41 cells, 3 hours at 37° C. On the procedure: as §2, §3, §4, §5
(In general: An ELISA detects its analyte on a solid surface through an enzyme-linked reagent.)

The structures appear in SMILES notation. Where only a bound is given, the exact number is not on record here.

T1 sequence (P11309 whole entry): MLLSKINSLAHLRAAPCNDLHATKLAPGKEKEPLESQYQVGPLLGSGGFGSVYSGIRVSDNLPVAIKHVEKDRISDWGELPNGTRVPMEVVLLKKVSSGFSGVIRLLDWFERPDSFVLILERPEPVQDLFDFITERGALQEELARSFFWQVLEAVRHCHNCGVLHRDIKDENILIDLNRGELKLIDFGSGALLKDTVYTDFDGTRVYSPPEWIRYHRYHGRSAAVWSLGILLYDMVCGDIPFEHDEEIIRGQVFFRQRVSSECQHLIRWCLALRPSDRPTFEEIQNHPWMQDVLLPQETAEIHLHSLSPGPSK
Chain of CDK1 (P06493 whole entry, species assumed): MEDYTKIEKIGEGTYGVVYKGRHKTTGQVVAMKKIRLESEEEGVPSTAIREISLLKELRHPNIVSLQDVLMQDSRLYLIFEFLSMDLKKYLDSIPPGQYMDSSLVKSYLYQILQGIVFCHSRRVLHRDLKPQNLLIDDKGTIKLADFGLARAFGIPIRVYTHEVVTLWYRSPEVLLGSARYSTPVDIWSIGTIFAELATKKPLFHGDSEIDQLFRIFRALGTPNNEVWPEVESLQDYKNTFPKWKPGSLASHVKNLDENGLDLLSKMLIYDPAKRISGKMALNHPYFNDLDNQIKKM
Chain of CDK1 (P14635 whole entry partner, species assumed): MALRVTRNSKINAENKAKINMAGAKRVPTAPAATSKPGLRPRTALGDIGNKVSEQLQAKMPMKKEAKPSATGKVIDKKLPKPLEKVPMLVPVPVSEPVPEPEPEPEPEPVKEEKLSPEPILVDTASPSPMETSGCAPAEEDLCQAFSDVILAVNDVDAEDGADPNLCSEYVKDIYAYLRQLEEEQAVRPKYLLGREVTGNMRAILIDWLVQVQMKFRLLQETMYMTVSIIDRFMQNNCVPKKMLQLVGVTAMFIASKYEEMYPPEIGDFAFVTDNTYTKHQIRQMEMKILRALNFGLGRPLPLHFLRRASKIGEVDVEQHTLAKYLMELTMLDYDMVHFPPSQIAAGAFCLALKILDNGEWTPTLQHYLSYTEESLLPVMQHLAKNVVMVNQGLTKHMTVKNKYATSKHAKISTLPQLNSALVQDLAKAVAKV
Chain of PLK1 (P53350 whole entry, species assumed): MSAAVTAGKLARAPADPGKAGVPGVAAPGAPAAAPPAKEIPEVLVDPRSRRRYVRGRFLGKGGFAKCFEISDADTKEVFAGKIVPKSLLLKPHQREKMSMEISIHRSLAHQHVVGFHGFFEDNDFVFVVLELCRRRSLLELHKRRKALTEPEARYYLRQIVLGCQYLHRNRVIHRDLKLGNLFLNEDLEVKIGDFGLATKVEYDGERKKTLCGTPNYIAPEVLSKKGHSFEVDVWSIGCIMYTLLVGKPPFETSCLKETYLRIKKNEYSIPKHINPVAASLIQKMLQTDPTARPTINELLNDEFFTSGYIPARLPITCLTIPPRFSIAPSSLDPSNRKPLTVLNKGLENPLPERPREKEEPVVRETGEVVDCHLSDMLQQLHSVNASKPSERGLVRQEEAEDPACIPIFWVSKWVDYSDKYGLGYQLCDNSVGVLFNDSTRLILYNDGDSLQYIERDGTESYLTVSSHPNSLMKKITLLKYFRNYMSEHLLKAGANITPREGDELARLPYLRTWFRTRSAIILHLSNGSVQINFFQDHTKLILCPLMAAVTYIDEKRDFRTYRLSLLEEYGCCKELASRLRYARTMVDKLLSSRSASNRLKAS
T2 sequence (Q9P1W9 whole entry): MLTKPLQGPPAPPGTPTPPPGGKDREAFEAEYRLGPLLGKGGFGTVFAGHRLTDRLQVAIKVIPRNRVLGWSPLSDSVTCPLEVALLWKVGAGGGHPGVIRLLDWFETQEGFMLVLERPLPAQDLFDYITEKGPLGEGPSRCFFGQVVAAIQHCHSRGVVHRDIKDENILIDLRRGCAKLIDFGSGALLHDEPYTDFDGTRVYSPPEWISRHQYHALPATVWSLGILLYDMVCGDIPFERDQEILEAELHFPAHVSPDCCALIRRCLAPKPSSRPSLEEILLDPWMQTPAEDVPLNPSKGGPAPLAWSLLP

In the case of `O=C(NC1CC1)c1ccc(-c2c(F)cnc3[nH]c4cnc(-c5cccnc5)cc4c23)cc1` [Example 11, N-cyclopropyl-4-[3-fluoro-6-(pyridin-3-yl)-9H-pyrrolo[2,3-b:5,4-c′]dipyridin-4-yl]benzamide], the IC50 in assay [1] is below 100 nM; in [2] it was 1000 to 5000 nM; in assay [3], 100 to 1000 nM; in assay [4] it was 100 to 1000 nM.
On to `CN1CCC(NC(=O)c2ccc(-c3c(F)cnc4[nH]c5cnc(-c6cccnc6)cc5c34)cc2)CC1` [Example 22, 4-[3-fluoro-6-(pyridin-3-yl)-9H-pyrrolo[2,3-b:5,4-c′]dipyridin-4-yl]-N-(1-methylpiperidin-4-yl)benzamide], for which the IC50 in [1] is below 100 nM; in assay [2], 100 to 1000 nM; in [3], below 100 nM; in assay [5], 1000 to 5000 nM; in [6], 1000 to 5000 nM; in [4] it was 1000 to 5000 nM. In addition, the 50% effective concentration (EC50) in [7] and in assay [8] was 100 to 1000 nM in each case.
In the case of `CC(C)(N)CNC(=O)c1ccc(-c2c(F)cnc3[nH]c4cnc(-c5cccnc5)cc4c23)cc1` [Example 26, N-(2-amino-2-methylpropyl)-4-[3-fluoro-6-(pyridin-3-yl)-9H-pyrrolo[2,3-b:5,4-c′]dipyridin-4-yl]benzamide], the IC50 in [1] was below 100 nM; in assay [2], below 100 nM; in assay [3], below 100 nM; in assay [5] it was 1000 to 5000 nM; in [6], 100 to 1000 nM; in [4], 1000 to 5000 nM.
On to `CN(C)CCNC(=O)c1ccc(-c2c(F)cnc3[nH]c4cnc(-c5cccnc5)cc4c23)cc1` [Example 9, N-[2-(dimethylamino)ethyl]-4-[3-fluoro-6-(pyridin-3-yl)-9H-pyrrolo-[2,3-b:5,4-c′]dipyridin-4-yl]benzamide], for which the half-maximal inhibitory concentration (IC50) in [1] was below 100 nM; in assay [2], below 100 nM; in [3] it was below 100 nM; in assay [5], 100 to 1000 nM; in assay [6], 100 to 1000 nM; in assay [4], 100 to 1000 nM. This molecule also registered an IC50 in assay [10] of 1000 to 5000 nM. Also, the figures for the EC50 in [7], in [8] and in assay [9] were below 100 nM, below 100 nM and 100 to 1000 nM, respectively.
For `CN(C)CCN(C)C(=O)c1ccc(-c2c(F)cnc3[nH]c4cnc(-c5cccnc5)cc4c23)cc1` [Example 23, N-[2-(dimethylamino)ethyl]-4-[3-fluoro-6-(pyridin-3-yl)-9H-pyrrolo[2,3-b:5,4-c′]dipyridin-4-yl]-N-methylbenzamide], the IC50 in assay [1] is below 100 nM; in assay [2], below 100 nM; in [3], below 100 nM; in assay [5], 1000 to 5000 nM; in assay [6] it was 100 to 1000 nM; in assay [4], 100 to 1000 nM. Moreover, in [10], the IC50 was 100 to 1000 nM.
In the case of `CN1CCN(CCNC(=O)c2ccc(-c3c(F)cnc4[nH]c5cnc(-c6cccnc6)cc5c34)cc2)CC1` [Example 24, 4-[3-fluoro-6-(pyridin-3-yl)-9H-pyrrolo[2,3-b:5,4-c′]dipyridin-4-yl]-N-[2-(4-methylpiperazin-1-yl)ethyl]benzamide], the IC50 in assay [1] was below 100 nM; in assay [2], 1000 to 5000 nM; in assay [3] it was below 100 nM; in [5] it was 1000 to 5000 nM; in [6], 1000 to 5000 nM; in assay [4] it was 100 to 1000 nM. This molecule yielded an IC50 in assay [10] of 1000 to 5000 nM. In addition, the EC50 in assay [7] and in assay [8] was 100 to 1000 nM in each case.
On to `CN(C)CCNC(=O)c1ccc(-c2ccnc3[nH]c4cnc(-c5cnn(C)c5)cc4c23)cc1` [Example 44], for which the IC50 was below 100 nM in [1]; below 100 nM in assay [2]; below 100 nM in [3]; 100 to 1000 nM in assay [5]; 100 to 1000 nM in [6]; 100 to 1000 nM in [4]. Further, the IC50 in [10] lay in the range of 100 to 1000 nM. The EC50 in assay [7] and in assay [8] was below 100 nM in each case.
As for `CN1CCC(CNC(=O)c2ccc(-c3c(F)cnc4[nH]c5cnc(-c6cccnc6)cc5c34)cc2)CC1` [Example 25, 4-[3-fluoro-6-(pyridin-3-yl)-9H-pyrrolo[2,3-b:5,4-c′]dipyridin-4-yl]-N-[(1-methylpiperidin-4-yl)methyl]benzamide], the half-maximal inhibitory concentration (IC50) in assay [1] is below 100 nM; in [2] it was 1000 to 5000 nM; in assay [3] it was below 100 nM; in assay [5], 1000 to 5000 nM; in [6] it was 1000 to 5000 nM; in assay [4] it was 1000 to 5000 nM. The molecule further yielded an IC50 in assay [10] of 100 to 1000 nM. Besides, the EC50 in assay [7] and in assay [8] was 100 to 1000 nM throughout.
For `CN(C)CCCNC(=O)c1ccc(-c2c(F)cnc3[nH]c4cnc(-c5cccnc5)cc4c23)cc1` [Example 10, N-[3-(dimethylamino)propyl]-4-[3-fluoro-6-(pyridin-3-yl)-9H-pyrrolo[2,3-b:5,4-c′]dipyridin-4-yl]benzamide], the IC50 was below 100 nM in [1]; 100 to 1000 nM in assay [2]; below 100 nM in [3]; 1000 to 5000 nM in assay [5]; 1000 to 5000 nM in assay [6]. The EC50 in assay [7], in assay [8] and in [9] was 100 to 1000 nM in each case.
